This is an account of results in patent publication US20230167094A1, “H4 ANTAGONIST COMPOUNDS” (Heptares Therapeutics Limited, priority 2020, published 2023).

One assay deals with hERG (Homo sapiens, UniProt Q12809). Nature of the assay: hERG assay (QPatch automated patch clamp, CHO cells). Type of assay: cell-based. As to conditions: CHO cells stably expressing hERG; 1, 3, 10 and 30 μM; tail current; room temperature; read-out: hERG pIC50 (converted). How it is done:
All experiments were performed on the QPatch automated patch clamp platform.
Series resistance (4-15 MΩ) was compensated by >80%.
(In general: hERG is a cardiac potassium channel; its block is linked to QT prolongation.)

The next assay deals with T1, human H4 receptor (Homo sapiens, UniProt Q9H3N8).
T1 construct: expressed in transfected cells; host or cells: HEKf cells infected with baculovirus
Nature of the assay: H4 Antagonist Functional Dynamic Mass Redistribution Assay. Type of assay: cell-based. As to conditions: HEKf cells expressing human H4 receptor; antagonist mode vs histamine EC80; pKb by Cheng-Prusoff; read-out: Human H4 DMR fpKb (converted). Here is the method:
H4 Antagonist Functional Dynamic Mass Redistribution Assay
HEKf cells were infected using baculovirus expressing the human H4 receptor, plated into fibronectin-coated EPIC plates at a density of 10,000 cells/well and incubated overnight at 37° C. The medium on cells was changed to […] HBSS with 20 mM HEPES per well and 30 nL DMSO were added per well by LabCyte ECHO acoustic dispensing. Following 2 h equilibration at room temperature, 30 nL of H4 ligands prepared in DMSO were stamped by LabCyte ECHO acoustic dispensing into seeded EPIC plates and cellular dynamic mass redistribution was monitored using a Corning EPIC plate reader. Following 45 min measurement, 30 nL/well of histamine EC80 was added and monitored to obtain antagonist assay data. Maximum baseline-corrected responses in pm were used to generate concentration response curves. EC50 values were generated using a 4-parameter logistical fit equation to quantify agonist potencies. Functional antagonist affinity values were generated using the Cheng-Prusoff equation to calculate a pKb value using the antagonist assay data.

A value given as a limit tells only on which side of the number the result lay.

T1 sequence (Q9H3N8 whole entry): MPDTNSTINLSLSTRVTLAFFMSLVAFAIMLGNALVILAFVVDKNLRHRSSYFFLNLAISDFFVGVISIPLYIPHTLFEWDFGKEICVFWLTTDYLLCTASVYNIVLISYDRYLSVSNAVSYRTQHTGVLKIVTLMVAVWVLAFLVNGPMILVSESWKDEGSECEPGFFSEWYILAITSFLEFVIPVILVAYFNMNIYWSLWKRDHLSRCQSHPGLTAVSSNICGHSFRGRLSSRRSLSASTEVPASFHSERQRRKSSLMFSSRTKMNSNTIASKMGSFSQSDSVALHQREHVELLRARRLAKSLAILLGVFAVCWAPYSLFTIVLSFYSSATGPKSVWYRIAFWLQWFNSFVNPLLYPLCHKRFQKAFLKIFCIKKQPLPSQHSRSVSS
Chain of hERG (Q12809 whole entry): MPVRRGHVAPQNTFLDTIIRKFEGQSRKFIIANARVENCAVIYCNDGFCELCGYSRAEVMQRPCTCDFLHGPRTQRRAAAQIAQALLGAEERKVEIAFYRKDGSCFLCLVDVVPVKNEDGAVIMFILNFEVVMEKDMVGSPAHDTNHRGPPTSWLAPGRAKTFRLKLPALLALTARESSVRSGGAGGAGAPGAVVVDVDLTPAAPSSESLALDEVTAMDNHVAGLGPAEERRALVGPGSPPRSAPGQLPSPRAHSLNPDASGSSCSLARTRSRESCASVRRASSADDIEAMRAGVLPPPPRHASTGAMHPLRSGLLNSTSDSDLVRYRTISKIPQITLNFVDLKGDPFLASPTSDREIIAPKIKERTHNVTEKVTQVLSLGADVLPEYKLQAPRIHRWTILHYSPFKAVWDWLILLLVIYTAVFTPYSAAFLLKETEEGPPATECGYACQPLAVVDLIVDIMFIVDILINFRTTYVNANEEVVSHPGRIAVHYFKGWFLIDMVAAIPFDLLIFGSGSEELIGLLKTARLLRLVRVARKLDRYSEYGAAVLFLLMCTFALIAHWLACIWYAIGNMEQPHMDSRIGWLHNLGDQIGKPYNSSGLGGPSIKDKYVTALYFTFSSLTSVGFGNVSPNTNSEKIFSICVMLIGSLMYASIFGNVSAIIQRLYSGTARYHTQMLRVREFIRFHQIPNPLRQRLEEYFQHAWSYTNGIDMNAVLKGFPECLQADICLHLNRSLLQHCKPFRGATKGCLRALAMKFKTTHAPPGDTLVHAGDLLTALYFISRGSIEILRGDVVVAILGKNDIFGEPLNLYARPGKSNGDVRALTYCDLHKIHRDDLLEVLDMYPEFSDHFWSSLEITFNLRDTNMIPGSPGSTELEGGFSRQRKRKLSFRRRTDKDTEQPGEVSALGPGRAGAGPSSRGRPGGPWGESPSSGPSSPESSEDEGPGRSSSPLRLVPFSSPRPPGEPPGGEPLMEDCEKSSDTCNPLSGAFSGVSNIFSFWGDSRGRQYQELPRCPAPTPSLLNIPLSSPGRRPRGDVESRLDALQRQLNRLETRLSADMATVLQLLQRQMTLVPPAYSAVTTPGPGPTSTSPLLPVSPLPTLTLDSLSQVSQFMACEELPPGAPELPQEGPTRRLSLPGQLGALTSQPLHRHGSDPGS

`CNC1CN(c2cc(-c3n[nH]c(C(F)(F)F)c3C)nc(N)n2)C1` [Example 17, 4-(4-Methyl-5-(trifluoromethyl)-1H-pyrazol-3-yl)-6-(3-(methylamino)azetidin-1-yl)pyrimidin-2-amine]: the IC50 at hERG is over 100000 nM. The Kb at human H4 receptor was 1 nM.

In the case of `CNC1CN(c2cc(-c3cnn(C)c3Br)nc(N)n2)C1` [Example 30, 4-(5-Bromo-1-methyl-1H-pyrazol-4-yl)-6-(3-(methylamino)azetidin-1-yl)pyrimidin-2-amine], the IC50 on hERG is over 100000 nM. Further, the Kb on human H4 receptor is 1.58 nM.

Regarding `CCn1cc(-c2cc(N3CC[C@@H](NC)C3)nc(N)n2)c(C)n1` [Example 14, (R)-4-(1-Ethyl-3-methyl-1H-pyrazol-4-yl)-6-(3-(methylamino)pyrrolidin-1-yl)pyrimidin-2-amine], the IC50 on hERG was 28800 nM. For the same compound, the Kb on human H4 receptor was 100 nM.

As for `CNC1CN(c2cc(-c3cn(C)nc3C)nc(N)n2)C1` [Example 18, 4-(1,3-Dimethyl-1H-pyrazol-4-yl)-6-(3-(methylamino)azetidin-1-yl)pyrimidin-2-amine], the IC50 at hERG was over 100000 nM. Besides, the Kb on human H4 receptor was 7.94 nM.

For the compound `CNC1CN(c2cc(-c3cnn(C(F)F)c3)nc(N)n2)C1` [Example 1, 4-(1-(Difluoromethyl)-1H-pyrazol-4-yl)-6-(3-(methylamino)azetidin-1-yl)pyrimidin-2-amine], the IC50 at hERG was over 100000 nM. In addition, at human H4 receptor, the Kb is 1.26 nM.

`CNC1CN(c2cc(-c3cnn(CC(F)(F)F)c3)nc(N)n2)C1` [Example 2, 4-(3-(Methylamino)azetidin-1-yl)-6-(1-(2,2,2-trifluoroethyl)-1H-pyrazol-4-yl)pyrimidin-2-amine]: at hERG, the IC50 was over 100000 nM. At human H4 receptor, the Kb was 15.8 nM.

Take `CNC1CN(c2cc(-c3cnn(CC(F)(F)F)c3C)nc(N)n2)C1` [Example 12, 4-(5-Methyl-1-(2,2,2-trifluoroethyl)-1H-pyrazol-4-yl)-6-(3-(methylamino)azetidin-1-yl)pyrimidin-2-amine]: the IC50 at hERG was 38900 nM. In addition, at human H4 receptor, the Kb is 7.94 nM.

Turning to `CNC1CN(c2cc(-c3cnn(C)c3Cl)nc(N)n2)C1` [Example 15, 4-(5-Chloro-1-methyl-1H-pyrazol-4-yl)-6-(3-(methylamino)azetidin-1-yl)pyrimidin-2-amine], the IC50 at hERG was over 100000 nM. In addition, on human H4 receptor, the Kb was 7.94 nM.

`CNC1CN(c2cc(-c3cc(C)[nH]n3)nc(N)n2)C1` [Example 35, 4-(5-Methyl-1H-pyrazol-3-yl)-6-(3-(methylamino)azetidin-1-yl)pyrimidin-2-amine]: the IC50 on hERG is over 31600 nM. At human H4 receptor, the Kb was 3.98 nM.

As to `CNC1CN(c2cc(-c3cnn(C(F)F)c3C)nc(N)n2)C1` [Example 16, 4-(1-(Difluoromethyl)-5-methyl-1H-pyrazol-4-yl)-6-(3-(methylamino)azetidin-1-yl)pyrimidin-2-amine], at hERG, the IC50 is over 100000 nM. For the same compound, the Kb on human H4 receptor is 2 nM.

Turning to `CCNC1CN(c2cc(-c3cnn(C(F)(F)F)c3)nc(N)n2)C1` [Example 7, 4-(3-(Ethylamino)azetidin-1-yl)-6-(1-(trifluoromethyl)-1H-pyrazol-4-yl)pyrimidin-2-amine], at hERG, the IC50 was 42700 nM. In addition, on human H4 receptor, the Kb is 7.94 nM.

For `CNC1CN(c2cc(-c3c[nH]nc3C)nc(N)n2)C1` [Example 39, 4-(3-Methyl-1H-pyrazol-4-yl)-6-(3-(methylamino)azetidin-1-yl)pyrimidin-2-amine], the IC50 at hERG was over 31600 nM. The Kb on human H4 receptor was 3.98 nM.
